Measurements as given in article PMC6900491, “The LRRC8 volume‐regulated anion channel inhibitor, DCPIB, inhibits mitochondrial respiration independently of the channel” (Physiological Reports, 2019).

Molecular target: T1, LRRC8A (volume-regulated anion channel, VRAC) (Homo sapiens, UniProt Q8IWT6)
T1 construct: endogenous VRAC in WT HAP-1 and HEK-293 cells (current absent in LRRC8A-KO cells); with at least one other LRRC8 subunit (LRRC8B, C, D or E)
T1 sequence (Q8IWT6 1-810): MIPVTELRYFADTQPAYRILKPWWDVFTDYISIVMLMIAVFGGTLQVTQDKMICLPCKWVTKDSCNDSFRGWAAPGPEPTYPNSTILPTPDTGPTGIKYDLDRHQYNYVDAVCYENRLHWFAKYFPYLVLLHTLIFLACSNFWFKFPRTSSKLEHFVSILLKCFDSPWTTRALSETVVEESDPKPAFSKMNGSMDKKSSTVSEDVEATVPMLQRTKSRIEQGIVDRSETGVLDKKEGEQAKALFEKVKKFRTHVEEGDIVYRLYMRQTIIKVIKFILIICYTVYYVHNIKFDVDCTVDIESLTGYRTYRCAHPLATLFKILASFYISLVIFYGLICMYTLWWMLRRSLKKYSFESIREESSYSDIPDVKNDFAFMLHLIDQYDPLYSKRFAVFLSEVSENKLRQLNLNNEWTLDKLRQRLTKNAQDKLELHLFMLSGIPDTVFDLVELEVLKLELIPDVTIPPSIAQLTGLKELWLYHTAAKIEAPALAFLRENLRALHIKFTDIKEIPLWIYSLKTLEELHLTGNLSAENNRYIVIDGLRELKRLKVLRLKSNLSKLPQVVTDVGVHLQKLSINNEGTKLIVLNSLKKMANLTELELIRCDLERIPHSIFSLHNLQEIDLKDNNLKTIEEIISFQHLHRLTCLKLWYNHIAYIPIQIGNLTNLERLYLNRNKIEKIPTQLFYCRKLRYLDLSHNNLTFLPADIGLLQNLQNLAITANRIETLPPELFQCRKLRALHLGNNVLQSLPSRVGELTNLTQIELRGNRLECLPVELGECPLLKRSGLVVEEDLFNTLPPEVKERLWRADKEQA
Assay: whole-cell patch clamp of swelling-induced anion current, WT vs LRRC8A-KO cells
Type: cell-based

CCCCC1(C2CCCC2)Cc2cc(OCCCC(=O)O)c(Cl)c(Cl)c2C1=O (stereo not shown) [DCPIB, 4‐(2‐butyl‐6,7‐dichloro‐2‐cyclopentylindan‐1‐on‐5‐yl) oxybutyric acid]
whole-cell patch clamp of swelling-induced anion current, WT vs LRRC8A-KO cells: 10 µM
